Test results from US20230116399A1, “Tumor Homing Statin Derivatives” (Da Zen Theranostics, Inc., priority 2019, published 2023).

System: 22RV1 prostate cancer cells
Assay: Cholesterol levels in whole cells and mitochondria (LC-SIM)
Format: cell-based, human
Experimental: Example 3E: Whole cells and mitochondria are prepared/treated as follows. 22RV1 prostate cancer cells are cultured as described herein-above. The cells are harvested, treated with Lithium dodecyl sulfate (LDS) detergent, then a whole cell fraction and an isolated mitochondrial fraction provided by centrifugation and the pellets are processed to determine their cholesterol levels as follows: cholesterol is extracted with hexane/methanol mixture (7:1, v/v), into which an appropriate amount of stable isotope-labeled d7-cholesterol standard (Avanti Polar Lipids) is spiked. Samples are sonicated in a water-bath, vortexed, and centrifuged at 16,000×g for 5 min at RT. The upper layers are dried down in a SpeedVac at RT. Then samples are incubated with 200 μL 10 mg/mL 4-(dimethylamino)phenyl isocyanate (DMAPI) in dichloromethane and 30 μL triethylamine at 65° C. for 1.5 h in a ThermoMixer. The reaction is quenched by phosphate buffer (pH 8.0), followed by extraction of DMAPI-labeled cholesterol with hexane and vacuum concentration in a SpeedVac. The dry residues are reconstituted in acetonitrile/isopropanol (1:1) and analyzed by liquid chromatography-selected ion monitoring (LC-SIM) using an Ultimate 3000 XRS liquid chromatography system connected to an Orbitrap Fusion Lumos mass spectrometer (Thermo Scientific). Following separation on a 5-cm Hypersil GOLD C18 column, DMAPI-derivatized endogenous cholesterol (m/z 549.442) and d7-cholesterol (m/z 556.485) are analyzed by time-scheduled SIM analysis on an Orbitrap Fusion Lumos. The acquired LC-SIM data are analyzed by Skyline for cholesterol quantification.

Compound: CCC(C)(C)C(=O)O[C@H]1C[C@@H](C)C=C2C=C[C@H](C)[C@H](CC[C@@H]3C[C@@H](O)CC(=O)O3)[C@H]21 [Simvastatin]
- Cholesterol, mitochondria (mitochondrial fraction): 56 nmol Cholesterol per 10^7 cells
- Cholesterol, mitochondria, relative to vehicle control (100%) (mitochondrial fraction): 51%
- Cholesterol, mitochondria, relative to vehicle control (100%) (mitochondrial fraction, listed as SIM): (51%)
- Cholesterol, whole cells (whole cells): 102 nmol Cholesterol per 10^6 cells
- Cholesterol, whole cells, relative to vehicle control (100%) (whole cells): 88%
- Cholesterol, whole cells, relative to vehicle control (100%) (whole cells, listed as SIM): (88%)
